The values below come from PubChem BioAssay AID328 (DTP/NCI, 2004).

The subject of the assay is BDF1 mice, P388 leukemia ip, median survival T/C. Description: NCI In Vivo Anticancer Drug Screen. Data for tumor model P388 Leukemia (intraperitoneal) in B6D2F1 (BDF1) mice. To be noted: endpoint: median survival time, higher = longer survival. The essentials: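 Transplantable tumour in mice; compound vs vehicle dosing; survival scored; ratio of treated to control reported.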

Setting [1] is: dose: 50.0 mg/kg/injection, schedule: Q01DX009 (ip), vehicle: saline with Tween-80.
[2] abbreviates: dose: 100.0 mg/kg/injection, schedule: Q01DX009 (ip), vehicle: saline with Tween-80.
The mark [3] stands for this setting: dose: 100.0 mg/kg/injection, schedule: Q04DX003 (ip), vehicle: saline with Tween-80.
Setting [4] is: dose: 200.0 mg/kg/injection, schedule: Q01DX009 (ip), vehicle: saline with Tween-80.
Where [5] appears, read: dose: 200.0 mg/kg/injection, schedule: Q04DX003 (ip), vehicle: saline with Tween-80.
The mark [6] stands for this setting: dose: 12.5 mg/kg/injection, schedule: Q01DX009 (ip), vehicle: saline with Tween-80.
Where [7] appears, read: dose: 25.0 mg/kg/injection, schedule: Q01DX009 (ip), vehicle: saline with Tween-80.
[8] abbreviates: dose: 100.0 mg/kg/injection, schedule: Q01DX009 (ip), vehicle: saline.
The mark [9] stands for this setting: dose: 200.0 mg/kg/injection, schedule: Q01DX009 (ip), vehicle: saline.
Where [10] appears, read: dose: 400.0 mg/kg/injection, schedule: Q01DX009 (ip), vehicle: saline.
[11] abbreviates: dose: 6.25 mg/kg/injection, schedule: Q01DX009 (ip), vehicle: saline.

Values joined by “and” are separate entries in the source; they are usually repeats but may differ in a detail not shown here. Equal entries are not always repeated. Toxic doses and inconclusive results are not listed.

On to `C1CCC2C[N-]CCC2C1.C1CCC2C[N-]CCC2C1.C1CCC2C[N-]CCC2C1.C1CCC2C[N-]CCC2C1.[Cl][Rh][Cl]` (stereo not drawn), for which the T/C is, setting by setting: (dose: 0.13 mg/kg/injection, schedule: Q01DX009 (ip), vehicle: saline) 95 % of control; (dose: 0.25 mg/kg/injection, schedule: Q01DX009 (ip), vehicle: saline) 104 % of control; (dose: 0.39 mg/kg/injection, schedule: Q01DX009 (ip), vehicle: saline with Tween-80) 115 % of control; (dose: 0.5 mg/kg/injection, schedule: Q01DX009 (ip), vehicle: saline) 119 % of control; (dose: 0.78 mg/kg/injection, schedule: Q01DX009 (ip), vehicle: saline with Tween-80) 115 % of control; (dose: 0.88 mg/kg/injection, schedule: Q01DX009 (ip), vehicle: saline) 153 % of control. The T/C is 174 % of control (dose: 1.33 mg/kg/injection, schedule: Q01DX009 (ip), vehicle: saline); 150 % of control (dose: 1.56 mg/kg/injection, schedule: Q01DX009 (ip), vehicle: saline with Tween-80); 153 % of control (dose: 2.0 mg/kg/injection, schedule: Q01DX009 (ip), vehicle: saline); 159 % of control (dose: 2.66 mg/kg/injection, schedule: Q01DX009 (ip), vehicle: saline); 185 % of control (dose: 3.12 mg/kg/injection, schedule: Q01DX009 (ip), vehicle: saline with Tween-80); 168 % of control and 170 % of control (dose: 4.0 mg/kg/injection, schedule: Q01DX009 (ip), vehicle: saline). Besides, the T/C (dose: 6.0 mg/kg/injection, schedule: Q01DX009 (ip), vehicle: saline) is 100 % of control.

Take `Nc1nc2nc(N=Nc3ccc(Br)cc3)[nH]c2c(=O)[nH]1`: the T/C (dose: 50.0 mg/kg/injection, schedule: Q01DX005 (ip), vehicle: saline with Tween-80) is 98 % of control; the T/C (dose: 100.0 mg/kg/injection, schedule: Q01DX005 (ip), vehicle: saline with Tween-80) was 97 % of control; the T/C (dose: 200.0 mg/kg/injection, schedule: Q01DX005 (ip), vehicle: saline with Tween-80) is 100 % of control.

For the molecule `O=c1[nH]c2cc(Cl)c(Cl)cc2o1`, the T/C was 115 % of control (dose: 50.0 mg/kg/injection, schedule: Q01DX009 (ip), vehicle: Klucel (hydroxypropylcellulose) (HPC)); 104 % of control under setting [1]; 115 % of control (dose: 100.0 mg/kg/injection, schedule: Q01DX009 (ip), vehicle: Klucel (hydroxypropylcellulose) (HPC)); 100 % of control under setting [2]; 100 % of control under setting [3]; 110 % of control (dose: 200.0 mg/kg/injection, schedule: Q01DX009 (ip), vehicle: Klucel (hydroxypropylcellulose) (HPC)). Also, the T/C runs as follows: under setting [4], 104 % of control; under setting [5], 95 % of control.

For `CCC1CN2CCc3cc(OC)c(OC)cc3C2CC1C#N` (stereo not drawn), the T/C is 89 % of control under setting [6], 89 % of control under setting [7] and 86 % of control under setting [1].

`NC(CCC(=O)NNc1ccccc1)C(=O)O` (stereo not drawn): the T/C by setting is: (dose: 15.0 mg/kg/injection, schedule: Q01DX009 (ip), vehicle: saline with Tween-80) 96 % of control; (dose: 30.0 mg/kg/injection, schedule: Q01DX009 (ip), vehicle: saline with Tween-80) 91 % of control.

On to `N#[N+]c1ccc2c(S(=O)(=O)O)cccc2c1O`, for which the T/C reads like this: under setting [8], 92 % of control; (dose: 100.0 mg/kg/injection, schedule: Q04DX003 (ip), vehicle: saline) 100 % of control; under setting [9], 103 % of control; (dose: 200.0 mg/kg/injection, schedule: Q04DX003 (ip), vehicle: saline) 108 % of control; under setting [10], 89 % of control; (dose: 400.0 mg/kg/injection, schedule: Q04DX003 (ip), vehicle: saline) 95 % of control.

Regarding `CCC1CCN2CCc3c([nH]c4ccccc34)C(C(=O)OC)(c3cc4c(cc3OC)N(C)C3C(O)(C(=O)OC)C(OC(C)=O)C5(CC)CCCN6CCC43C65)CC2C1` (stereo not drawn), the T/C was 95 % of control (dose: 0.06 mg/kg/injection, schedule: Q01DX009 (ip), vehicle: water); 100 % of control (dose: 0.12 mg/kg/injection, schedule: Q01DX009 (ip), vehicle: water); 104 % of control (dose: 0.25 mg/kg/injection, schedule: Q01DX009 (ip), vehicle: water); 95 % of control (dose: 0.5 mg/kg/injection, schedule: Q01DX009 (ip), vehicle: water); 86 % of control and 104 % of control (dose: 1.0 mg/kg/injection, schedule: Q01DX009 (ip), vehicle: water); 90 % of control and 95 % of control (dose: 2.0 mg/kg/injection, schedule: Q01DX009 (ip), vehicle: water). Further, the T/C runs as follows: (dose: 4.0 mg/kg/injection, schedule: Q01DX009 (ip), vehicle: water) 90 % of control; (dose: 8.0 mg/kg/injection, schedule: Q01DX009 (ip), vehicle: water) 95 % of control.

As to `c1ccc2c3c(ccc2c1)Sc1ccc2ccccc2c1N3`, the T/C is 90 % of control under setting [2]; 104 % of control under setting [3]; 90 % of control under setting [4]; 90 % of control under setting [5]; 90 % of control (dose: 400.0 mg/kg/injection, schedule: Q01DX009 (ip), vehicle: saline with Tween-80); 90 % of control (dose: 400.0 mg/kg/injection, schedule: Q04DX003 (ip), vehicle: saline with Tween-80).

For `CC[N+](CC)(CC)CCC[N+](CC)(CC)CC`, the T/C (dose: 50.0 mg/kg/injection, schedule: Q01DX009 (ip), vehicle: water) is 89 % of control; the T/C (dose: 100.0 mg/kg/injection, schedule: Q04DX003 (ip), vehicle: water) is 109 % of control; the T/C (dose: 200.0 mg/kg/injection, schedule: Q04DX003 (ip), vehicle: water) was 90 % of control.

On to `CC1OC(OC2C(O)C(O)C(O)C(O)C2O)C(N)CC1N=C(N)C(=O)O` (stereo not drawn), for which the T/C is 91 % of control under setting [8], 100 % of control under setting [9] and 116 % of control under setting [10].

Regarding `Cn1/c2cc/c1=C(\c1ccc(S(=O)(=O)O)cc1)c1ccc([n-]1)/C(c1ccc(S(=O)(=O)O)cc1)=c1/cc/c([nH]1)=C(\c1ccc(S(=O)(=O)O)cc1)c1ccc([n-]1)/C=2c1ccc(S(=O)(=O)O)cc1.O.O=S(=O)(O)C(F)(F)F.[Cu+2]`, the T/C under setting [11] was 101 % of control and the T/C (dose: 50.0 mg/kg/injection, schedule: Q01DX009 (ip), vehicle: saline) is 101 % of control.

`COC(/C=C\C(OC)OC)OC`: the T/C is, setting by setting: (dose: 4.1 mg/kg/injection, schedule: Q01DX009 (ip), vehicle: saline) 109 % of control; (dose: 4.17 mg/kg/injection, schedule: Q01DX009 (ip), vehicle: saline) 100 % of control; under setting [11], 100 % of control and 122 % of control; (dose: 9.3 mg/kg/injection, schedule: Q01DX009 (ip), vehicle: saline) 122 % of control; (dose: 9.37 mg/kg/injection, schedule: Q01DX009 (ip), vehicle: saline) 95 % of control; (dose: 12.5 mg/kg/injection, schedule: Q01DX009 (ip), vehicle: saline) 112 % of control. The T/C reads like this: (dose: 18.75 mg/kg/injection, schedule: Q04DX003 (ip), vehicle: saline) 110 % of control; (dose: 25.0 mg/kg/injection, schedule: Q01DX009 (ip), vehicle: saline) 112 % of control; (dose: 37.5 mg/kg/injection, schedule: Q04DX003 (ip), vehicle: saline) 105 % of control.

As to `CCCCCCCCCCCCCCCCCOC(=O)CCCCCCCCCCCCCCCCC`, the T/C (dose: 25.0 mg/kg/injection, schedule: Q04DX003 (ip), vehicle: saline with Tween-80) is 105 % of control; the T/C (dose: 50.0 mg/kg/injection, schedule: Q04DX003 (ip), vehicle: saline with Tween-80) is 105 % of control; the T/C under setting [3] is 100 % of control.

In the case of `Cc1cc(Cc2cc(C)c(C)c(C)c2C)c(C)c(C)c1C`, the T/C was 93 % of control under setting [6], 100 % of control under setting [7], 98 % of control under setting [1] and 97 % of control under setting [2].
